Values quoted from earlier work as cited in US20230218541A1, “Enhanced Moisturizing Lotion Compositions” (priority 2019, published 2023).

System: coronaviruses, including SARS-CoV-2, SARS-CoV, MERS-CoV, and HCoVs
Conditions: 62% to 71% ethanol, 0.5% hydrogen peroxide or 0.1% sodium hypochlorite

## CCO [ethanol]
  Time to efficient inactivation of coronaviruses on contact with surface disinfectant: one

## OO [hydrogen peroxide]
  Time to efficient inactivation of coronaviruses on contact with surface disinfectant: one

## OCl [sodium hypochlorite]
  Time to efficient inactivation of coronaviruses on contact with surface disinfectant: one
